Measurements from the supplement of paper PMC10307832.

Key:
Assay in all cases: relative viability (nuclei count vs DMSO), 5 days (fraction); higher = more cells survive
[1] = system: ABC-1
Method in brief: (§1)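 Nuclei were stained with Hoechst during a one-step fixation (final 0.05% Triton X-100, 1% formaldehyde, 1 ug/ml Hoechst) carried out 5 days after dosing, then counted on 4× images. The cells, lung cancer lines in 1536-well plates, had been dosed by pin tool the day after seeding with one drug alone or a fixed anchor-drug dose plus five library-drug doses (not always all listed) in √10 steps. Relative viability is the nuclei count in treated wells divided by that in vehicle wells, and each value is the median of duplicate plates.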

[2] = system: COR-L23
Method in brief: as §1

[3] = system: EMC-BAC-2
Method in brief: as §1

[4] = system: HARA
Method in brief: as §1

[5] = system: HCC-15
Method in brief: as §1

[6] = system: HCC-366
Method in brief: as §1

[7] = system: HCC-78
Method in brief: as §1

[8] = system: HOP-62
Method in brief: as §1

[9] = system: LC-2-ad
Method in brief: as §1

[10] = system: NCI-H1395
Method in brief: as §1

[11] = system: NCI-H1793
Method in brief: as §1

[12] = system: NCI-H1944
Method in brief: as §1

[13] = system: NCI-H1993
Method in brief: as §1

[14] = system: NCI-H2023
Method in brief: as §1

[15] = system: NCI-H2126
Method in brief: as §1

[16] = system: NCI-H2228
Method in brief: as §1

[17] = system: NCI-H23
Method in brief: as §1

[18] = system: NCI-H2405
Method in brief: as §1

[19] = system: NCI-H358
Method in brief: as §1

[20] = system: NCI-H838
Method in brief: as §1

[21] = system: SK-LU-1
Method in brief: as §1

COc1nc(C)cnc1NS(=O)(=O)c1cccnc1-c1ccc(-c2nnco2)cc1 [Zibotentan] + C[C@]1(O)C[C@@H](c2nc(-c3ccc4ccc(-c5ccccc5)nc4c3)c3c(N)nccn32)C1 [Linsitinib] (partner 1 µM)
relative viability ([1]; first compound 0.08 µM): 0.775
relative viability ([1]; first compound 0.253 µM): 0.803
relative viability ([1]; first compound 0.8 µM): 1.01
relative viability ([1]; first compound 2.53 µM): 0.822
relative viability ([2]; first compound 0.08 µM): 1.02
relative viability ([2]; first compound 0.253 µM): 0.748
relative viability ([2]; first compound 0.8 µM): 0.896
relative viability ([2]; first compound 2.53 µM): 1.14
relative viability ([3]; first compound 0.08 µM): 0.895
relative viability ([3]; first compound 0.253 µM): 0.785
relative viability ([3]; first compound 0.8 µM): 0.823
relative viability ([3]; first compound 2.53 µM): 0.905
relative viability ([4]; first compound 0.08 µM): 1.24
relative viability ([4]; first compound 0.253 µM): 0.945
relative viability ([4]; first compound 0.8 µM): 0.955
relative viability ([4]; first compound 2.53 µM): 0.902
relative viability ([5]; first compound 0.08 µM): 0.905
relative viability ([5]; first compound 0.253 µM): 0.912
relative viability ([5]; first compound 0.8 µM): 0.867
relative viability ([5]; first compound 2.53 µM): 0.878
relative viability ([6]; first compound 0.08 µM): 0.7
relative viability ([6]; first compound 0.253 µM): 0.586
relative viability ([6]; first compound 0.8 µM): 0.518
relative viability ([6]; first compound 2.53 µM): 0.794
relative viability ([7]; first compound 0.08 µM): 0.548
relative viability ([7]; first compound 0.253 µM): 0.503
relative viability ([7]; first compound 0.8 µM): 0.411
relative viability ([7]; first compound 2.53 µM): 0.49
relative viability ([8]; first compound 0.08 µM): 0.805
relative viability ([8]; first compound 0.253 µM): 1.06
relative viability ([8]; first compound 0.8 µM): 0.992
relative viability ([8]; first compound 2.53 µM): 1.29
relative viability ([9]; first compound 0.08 µM): 0.904
relative viability ([9]; first compound 0.253 µM): 0.828
relative viability ([9]; first compound 0.8 µM): 0.87
relative viability ([9]; first compound 2.53 µM): 0.976
relative viability ([10]; first compound 0.08 µM): 1.39
relative viability ([10]; first compound 0.253 µM): 1.07
relative viability ([10]; first compound 0.8 µM): 1.05
relative viability ([10]; first compound 2.53 µM): 1.08
relative viability ([11]; first compound 0.08 µM): 0.811
relative viability ([11]; first compound 0.253 µM): 0.824
relative viability ([11]; first compound 0.8 µM): 1.05
relative viability ([11]; first compound 2.53 µM): 1.01
relative viability ([12]; first compound 0.08 µM): 1.19
relative viability ([12]; first compound 0.253 µM): 1.12
relative viability ([12]; first compound 0.8 µM): 1.1
relative viability ([12]; first compound 2.53 µM): 1.15
relative viability ([13]; first compound 0.253 µM): 0.838
relative viability ([13]; first compound 0.8 µM): 0.75
relative viability ([13]; first compound 2.53 µM): 0.85
relative viability ([14]; first compound 0.08 µM): 0.57
relative viability ([14]; first compound 0.253 µM): 0.544
relative viability ([14]; first compound 0.8 µM): 0.743
relative viability ([14]; first compound 2.53 µM): 0.654
relative viability ([15]; first compound 0.08 µM): 0.733
relative viability ([15]; first compound 0.253 µM): 0.625
relative viability ([15]; first compound 0.8 µM): 0.745
relative viability ([15]; first compound 2.53 µM): 0.716
relative viability ([16]; first compound 0.08 µM): 0.722
relative viability ([16]; first compound 0.253 µM): 0.467
relative viability ([16]; first compound 0.8 µM): 0.903
relative viability ([16]; first compound 2.53 µM): 0.728
relative viability ([17]; first compound 0.08 µM): 0.614
relative viability ([17]; first compound 0.253 µM): 0.545
relative viability ([17]; first compound 0.8 µM): 0.653
relative viability ([17]; first compound 2.53 µM): 0.477
relative viability ([18]; first compound 0.08 µM): 1.07
relative viability ([18]; first compound 0.253 µM): 0.796
relative viability ([18]; first compound 0.8 µM): 0.908
relative viability ([18]; first compound 2.53 µM): 0.959
relative viability ([19]; first compound 0.08 µM): 0.782
relative viability ([19]; first compound 0.8 µM): 0.778
relative viability ([19]; first compound 2.53 µM): 0.805
relative viability ([20]; first compound 0.08 µM): 1.02
relative viability ([20]; first compound 0.253 µM): 0.957
relative viability ([20]; first compound 0.8 µM): 1
relative viability ([20]; first compound 2.53 µM): 0.959
relative viability ([21]; first compound 0.08 µM): 0.833
relative viability ([21]; first compound 0.253 µM): 0.888
relative viability ([21]; first compound 0.8 µM): 1.15
relative viability ([21]; first compound 2.53 µM): 1.22
